Laboratory results from US20230146395A1, “Substituted Pyrimidines and Uses Thereof” (Verge Analytics, Inc., priority 2020, published 2023).
Structures can show the parent of a compound that is named as a salt.

These molecules were tested against T1, Full length human recombinant PIKFYVE (Homo sapiens, UniProt Q9Y2I7) (assay: Inhibition of PIKfyve (microfluidic electrophoresis kinase assay, PI3P/PS substrate)). Settings: 12 concentrations.
T1 construct: Full length human recombinant PIKFYVE; purchased Carna Biosciences (Kobe, Japan); host or cells: baculovirus expression system
T1 sequence (Q9Y2I7 whole entry): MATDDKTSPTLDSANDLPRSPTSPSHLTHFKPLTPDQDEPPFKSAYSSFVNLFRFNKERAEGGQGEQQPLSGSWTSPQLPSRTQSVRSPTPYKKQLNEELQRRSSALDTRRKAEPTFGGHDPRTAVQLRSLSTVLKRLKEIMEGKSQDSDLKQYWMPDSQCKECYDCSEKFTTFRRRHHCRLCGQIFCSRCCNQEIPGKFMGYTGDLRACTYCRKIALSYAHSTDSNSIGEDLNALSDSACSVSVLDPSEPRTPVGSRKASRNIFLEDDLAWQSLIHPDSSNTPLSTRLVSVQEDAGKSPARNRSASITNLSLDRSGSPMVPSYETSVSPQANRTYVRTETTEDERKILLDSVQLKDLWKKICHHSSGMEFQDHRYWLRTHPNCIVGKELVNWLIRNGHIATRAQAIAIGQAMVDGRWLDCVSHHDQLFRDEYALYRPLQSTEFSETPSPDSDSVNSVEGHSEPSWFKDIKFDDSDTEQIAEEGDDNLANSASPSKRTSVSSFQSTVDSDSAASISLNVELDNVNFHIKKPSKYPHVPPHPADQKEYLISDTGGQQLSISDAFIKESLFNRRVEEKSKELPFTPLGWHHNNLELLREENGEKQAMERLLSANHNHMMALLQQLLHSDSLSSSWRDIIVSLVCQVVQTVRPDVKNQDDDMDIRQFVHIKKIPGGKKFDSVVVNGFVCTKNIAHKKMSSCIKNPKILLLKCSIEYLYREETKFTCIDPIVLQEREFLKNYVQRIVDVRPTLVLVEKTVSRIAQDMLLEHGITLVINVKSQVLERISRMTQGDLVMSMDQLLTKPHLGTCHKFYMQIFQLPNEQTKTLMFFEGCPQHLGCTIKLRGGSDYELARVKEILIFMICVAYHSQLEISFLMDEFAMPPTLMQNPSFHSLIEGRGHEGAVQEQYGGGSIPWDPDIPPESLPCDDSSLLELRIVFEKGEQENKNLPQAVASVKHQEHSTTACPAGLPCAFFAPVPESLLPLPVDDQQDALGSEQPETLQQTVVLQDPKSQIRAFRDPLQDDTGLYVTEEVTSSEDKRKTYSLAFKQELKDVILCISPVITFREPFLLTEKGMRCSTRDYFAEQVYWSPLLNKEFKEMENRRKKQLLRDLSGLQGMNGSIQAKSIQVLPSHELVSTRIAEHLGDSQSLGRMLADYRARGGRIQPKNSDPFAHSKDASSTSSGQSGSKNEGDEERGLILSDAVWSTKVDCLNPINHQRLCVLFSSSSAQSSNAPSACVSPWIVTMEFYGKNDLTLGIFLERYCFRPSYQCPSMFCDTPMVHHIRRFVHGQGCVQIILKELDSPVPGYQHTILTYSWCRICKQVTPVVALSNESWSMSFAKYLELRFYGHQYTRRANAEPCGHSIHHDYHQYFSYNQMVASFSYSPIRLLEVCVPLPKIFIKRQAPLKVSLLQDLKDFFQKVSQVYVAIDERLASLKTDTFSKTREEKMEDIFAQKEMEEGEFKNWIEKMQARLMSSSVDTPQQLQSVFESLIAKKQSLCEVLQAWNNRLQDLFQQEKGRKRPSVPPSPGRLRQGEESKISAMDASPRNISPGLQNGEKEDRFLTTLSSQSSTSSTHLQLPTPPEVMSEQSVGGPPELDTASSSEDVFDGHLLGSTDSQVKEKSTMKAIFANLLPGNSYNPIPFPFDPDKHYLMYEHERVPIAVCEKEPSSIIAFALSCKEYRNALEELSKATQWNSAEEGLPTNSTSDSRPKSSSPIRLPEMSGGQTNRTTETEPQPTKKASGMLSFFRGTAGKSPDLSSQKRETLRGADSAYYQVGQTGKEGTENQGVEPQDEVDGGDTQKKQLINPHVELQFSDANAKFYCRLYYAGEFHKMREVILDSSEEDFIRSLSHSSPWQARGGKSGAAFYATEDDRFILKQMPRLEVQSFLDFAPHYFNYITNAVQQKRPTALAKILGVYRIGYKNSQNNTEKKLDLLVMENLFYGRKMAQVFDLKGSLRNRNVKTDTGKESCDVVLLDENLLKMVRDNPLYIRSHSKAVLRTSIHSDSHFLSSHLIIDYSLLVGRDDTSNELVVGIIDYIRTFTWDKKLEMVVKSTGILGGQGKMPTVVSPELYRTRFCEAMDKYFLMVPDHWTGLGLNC
Format: biochemical
Method in brief: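 Percent inhibition, from 12 concentrations, was derived from the product/(substrate+product) peak ratio separated by microfluidic electrophoresis, normalized to DMSO-only and enzyme-free controls. Reactions ran 3 h at room temperature: 2 nM N-terminal GST-PIKFYVE, 1 μM fluorescent PI3P in PS vesicles, […], HEPES pH 7.5, MgCl2/MnCl2.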
Molecule NC(=O)c1cc2nc(Nc3cc(-c4ccccc4)n[nH]3)nc(N3CCOCC3)c2o1 [Compound 52, 4-morpholino-2-((3-phenyl-1H-pyrazol-5-yl)amino)furo[3,2-d]pyrimidine-6-carboxamide hydrochloride] has an IC50 of 0.047 µM.
Cc1cccc(-c2cc(Nc3nc(N4CCOCC4)c4oc(-c5ccccn5)cc4n3)[nH]n2)c1 [Compound 27, 4-morpholino-N-[5-(m-tolyl)-1H-pyrazol-3-yl]-6-(2-pyridyl)furo[3,2-d]pyrimidin-2-amine, hydrogen chloride] was tested, and the IC50 was 0.001 µM.
Cc1cccc(-c2ccn(-c3nc(N4CCOCC4)c4oc(C(=O)NS(C)(=O)=O)cc4n3)n2)c1 [Compound 98, N-(methylsulfonyl)-4-morpholino-2-(3-(m-tolyl)-1H-pyrazol-1-yl)furo[3,2-d]pyrimidine-6-carboxamide] showed an IC50 of 0.0787 µM.
Molecule c1cncc(-c2cc3nc(Nc4cc(-c5ccncc5)n[nH]4)nc(N4CCOCC4)c3o2)c1 [Compound 31, 4-morpholino-6-(3-pyridyl)-N-[5-(4-pyridyl)-1H-pyrazol-3-yl]furo[3,2-d]pyrimidin-2-amine, hydrogen chloride] has an IC50 of 0.369 µM.
For Cc1cccc(-c2ccn(-c3nc(N4CCOCC4)c4oc(-c5cnn(C)c5)cc4n3)n2)c1 [Compound 205, 6-(1-methylpyrazol-4-yl)-4-morpholino-2-[3-(m-tolyl)pyrazol-1-yl]furo[3,2-d]pyrimidine], the IC50 was 0.0013 µM.
CN1CCC(NC(=O)c2cc3nc(-n4cc(-c5ccccc5)cn4)nc(N4CCOCC4)c3o2)CC1 [Compound 157, N-(1-methylpiperidin-4-yl)-4-morpholino-2-(4-phenyl-1H-pyrazol-1-yl)furo[3,2-d]pyrimidine-6-carboxamide] showed an IC50 of 0.0888 µM.
O=C(c1cc2nc(-n3cc(-c4ccccc4)cn3)nc(N3CCOCC3)c2o1)N1CCC1 [Compound 67, azetidin-1-yl(4-morpholino-2-(4-phenyl-1H-pyrazol-1-yl)furo[3,2-d]pyrimidin-6-yl)methanone] was tested, and the IC50 was 0.928 µM.
In the case of Cc1cc(-c2cc3nc(-n4cc(-c5ccccc5)cn4)nc(N4CCOCC4)c3o2)[nH]n1 [Compound 163, 6-(3-methyl-1H-pyrazol-5-yl)-4-morpholino-2-(4-phenylpyrazol-1-yl)furo[3,2-d]pyrimidine], the IC50 is reported as 0.0235 µM.
Molecule Cc1c(-c2cccnc2)oc2c(N3CCOCC3)nc(-n3ccc(-c4ccccc4)n3)nc12 [Compound 180, 7-methyl-4-morpholino-2-(3-phenylpyrazol-1-yl)-6-(3-pyridyl)furo[3,2-d]pyrimidine] has an IC50 of 0.0556 µM.
Molecule Cc1cc(-c2cc3nc(-n4ccc(-c5ccccc5)n4)nc(N4CCOCC4)c3o2)on1 [Compound 206, 6-(3-methylisoxazol-5-yl)-4-morpholino-2-(3-phenylpyrazol-1-yl)furo[3,2-d]pyrimidine] has an IC50 of 0.007 µM.
CN1CCC(c2cc3nc(Nc4cc(-c5ccccc5)n[nH]4)nc(N4CCOCC4)c3o2)CC1 [Compound 32] was tested, and the IC50 was 0.116 µM.
c1ccc(-c2cc(Nc3nc(N4CCOCC4)c4oc(CN5CCCCC5)cc4n3)[nH]n2)cc1 [Compound 13] was tested, and the IC50 was 0.545 µM.
Molecule COc1cccc(-c2ccn(-c3nc(N4CCOCC4)c4oc(-c5ccccn5)cc4n3)n2)c1 [Compound 199, 2-[3-(3-methoxyphenyl)pyrazol-1-yl]-4-morpholino-6-(2-pyridyl)furo[3,2-d]pyrimidine] has an IC50 of 0.0368 µM.
Cc1ccccc1-c1cc(Nc2nc(N3CCOCC3)c3oc(-c4ccncc4)cc3n2)[nH]n1 [Compound 2, 4-morpholino-N-[5-(o-tolyl)-1H-pyrazol-3-yl]-6-(4-pyridyl)furo[3,2-d]pyrimidin-2-amine, hydrogen chloride] was tested, and the IC50 was 0.0648 µM.
Cc1c(C(=O)NC2CC2)oc2c(N3CCOCC3)nc(-n3ccc(-c4ccccc4)n3)nc12 [Compound 184, N-cyclopropyl-7-methyl-4-morpholino-2-(3-phenylpyrazol-1-yl)furo[3,2-d]pyrimidine-6-carboxamide] showed an IC50 of 1.43 µM.
CN(C)Cc1cc2nc(Nc3cc(-c4ccccc4)n[nH]3)nc(N3CCOCC3)c2o1 [Compound 14] showed an IC50 of 0.847 µM.
With O=C(NCC1CC1)c1cc2nc(-n3ccc(-c4ccccc4)n3)nc(N3CCOCC3)c2o1 [Compound 166, N-(cyclopropylmethyl)-4-morpholino-2-(3-phenylpyrazol-1-yl)furo[3,2-d]pyrimidine-6-carboxamide] the IC50 was 0.22 µM.
CN1CCC(NC(=O)c2cc3nc(-n4ccc(-c5ccccc5)n4)nc(N4CCOCC4)c3o2)CC1 [Compound 151, N-(1-methyl-4-piperidyl)-4-morpholino-2-(3-phenylpyrazol-1-yl)furo[3,2-d]pyrimidine-6-carboxamide] was tested, and the IC50 was 0.446 µM.
CCNC(=O)c1cc2nc(-n3cc(-c4cccc(C)c4)cn3)nc(N3CCOCC3=O)c2o1 [Compound 149, N-ethyl-2-[4-(m-tolyl)pyrazol-1-yl]-4-(3-oxomorpholin-4-yl)furo[3,2-d]pyrimidine-6-carboxamide] showed an IC50 greater than 20 µM.
COc1cccc(-c2ccn(-c3nc(N4CCOCC4)c4oc(C(=O)NC5CCOCC5)cc4n3)n2)c1 [Compound 221, 2-[3-(3-methoxyphenyl)pyrazol-1-yl]-4-morpholino-N-tetrahydropyran-4-yl-furo[3,2-d]pyrimidine-6-carboxamide] was tested, and the IC50 was 0.0034 µM.
Work on Fc1cccc(-c2cc(Nc3nc(N4CCOCC4)c4occc4n3)[nH]n2)c1 [Compound 7, N-[5-(3-fluorophenyl)-1H-pyrazol-3-yl]-4-morpholino-furo[3,2-d]pyrimidin-2-amine, hydrogen chloride] yielded an IC50 of 0.451 µM.
Cc1ncc(-c2cc3nc(-n4ccc(-c5ccccc5)n4)nc(N4CCOCC4)c3o2)[nH]1 [Compound 213, 6-(2-methyl-1H-imidazol-5-yl)-4-morpholino-2-(3-phenylpyrazol-1-yl)furo[3,2-d]pyrimidine] showed an IC50 of 0.0106 µM.
Cc1cccc(-c2ccn(-c3nc(N4CCOCC4)c4oc(C(N)=O)cc4n3)n2)c1 [Compound 94, 4-morpholino-2-(3-(m-tolyl)-1H-pyrazol-1-yl)furo[3,2-d]pyrimidine-6-carboxamide] gave an IC50 of 0.0867 µM.
For c1ccc(Cc2cc(Nc3nc(N4CCOCC4)c4oc(-c5ccncc5)cc4n3)[nH]n2)cc1 [Compound 73, N-(5-benzyl-1H-pyrazol-3-yl)-4-morpholino-6-(pyridin-4-yl)furo[3,2-d]pyrimidin-2-amine, hydrogen chloride], the IC50 was 0.141 µM.
Work on CN(C)C(=O)c1cc2nc(Nc3cc(-c4ccccc4)[nH]n3)nc(N3CCOCC3)c2o1 [Compound 137, N,N-dimethyl-4-morpholino-2-((5-phenyl-1H-pyrazol-3-yl)amino)furo[3,2-d]pyrimidine-6-carboxamide] yielded an IC50 of 0.095 µM.
Molecule c1ccc(-c2ccn(-c3nc(N4CCOCC4)c4oc(-c5cn[nH]c5)cc4n3)n2)cc1 [Compound 209, 4-morpholino-2-(3-phenylpyrazol-1-yl)-6-(1H-pyrazol-4-yl)furo[3,2-d]pyrimidine] has an IC50 of 0.0098 µM.
For CN1CCC(NC(=O)c2cc3nc(-n4cc(-c5ccccc5)cn4)nc(N4CCOCC4)c3o2)C1 (stereo not shown) [Compound 170, N-(1-methylpyrrolidin-3-yl)-4-morpholino-2-(4-phenylpyrazol-1-yl)furo[3,2-d]pyrimidine-6-carboxamide], the IC50 was 0.0455 µM.
O=C(NC1CC1)c1cc2nc(-n3cc(-c4ccccc4)cn3)nc(N3CCOCC3)c2o1 [Compound 165, N-cyclopropyl-4-morpholino-2-(4-phenylpyrazol-1-yl)furo[3,2-d]pyrimidine-6-carboxamide] showed an IC50 of 0.0684 µM.
In the case of O=C(NC1CC1)c1cc2nc(-n3ccc(-c4ccccc4)n3)nc(N3CCOCC3)c2o1 [Compound 153, N-cyclopropyl-4-morpholino-2-(3-phenylpyrazol-1-yl)furo[3,2-d]pyrimidine-6-carboxamide], the IC50 is reported as 0.024 µM.
Cn1ccc(-c2cc3nc(-n4cc(-c5cccc(Cl)c5)cn4)nc(N4CCOCC4)c3o2)n1 [Compound 192, 2-(4-(3-chlorophenyl)-1H-pyrazol-1-yl)-6-(1-methyl-1H-pyrazol-3-yl)-4-morpholinofuro[3,2-d]pyrimidine] gave an IC50 of 0.0217 µM.
For Cc1cc(-c2cc3nc(-n4ccc(-c5ccccc5)n4)nc(N4CCOCC4)c3o2)[nH]n1 [Compound 162, 6-(3-methyl-1H-pyrazol-5-yl)-4-morpholino-2-(3-phenylpyrazol-1-yl)furo[3,2-d]pyrimidine], the IC50 was 0.0178 µM.
In the case of Cc1cccc(-c2cnn(-c3nc(N4CCOCC4)c4oc(-c5ccn(C)n5)cc4n3)c2)c1 [Compound 201, 6-(1-methylpyrazol-3-yl)-4-morpholino-2-[4-(m-tolyl)pyrazol-1-yl]furo[3,2-d]pyrimidine], the IC50 is reported as 0.0005 µM.
Molecule c1ccc(-c2cnc(Nc3nc(N4CCOCC4)c4oc(-c5ccncc5)cc4n3)o2)cc1 [Compound 46, 4-morpholino-N-(5-phenyloxazol-2-yl)-6-(4-pyridyl)furo[3,2-d]pyrimidin-2-amine, hydrogen chloride] has an IC50 of 0.107 µM.
CNC(=O)c1cc2nc(Nc3cc(-c4cccs4)n[nH]3)nc(N3CCOCC3)c2o1 [Compound 85, N-methyl-4-morpholino-2-((5-(thiophen-2-yl)-1H-pyrazol-3-yl)amino)furo[3,2-d]pyrimidine-6-carboxamide, hydrogen chloride] gave an IC50 of 0.069 µM.
CC(=O)NCCn1nc(-c2cc3nc(-n4cc(-c5cccc(C)c5)cn4)nc(N4CCOCC4)c3o2)cc1C [Compound 197, N-[2-[5-methyl-3-[4-morpholino-2-[4-(m-tolyl)pyrazol-1-yl]furo[3,2-d]pyrimidin-6-yl]pyrazol-1-yl]ethyl]acetamide] gave an IC50 of 0.0007 µM.
With CS(=O)(=O)NC(=O)c1cc2nc(Nc3cc(-c4ccccc4)n[nH]3)nc(N3CCOCC3)c2o1 [Compound 65, N-(methylsulfonyl)-4-morpholino-2-((3-phenyl-1H-pyrazol-5-yl)amino)furo[3,2-d]pyrimidine-6-carboxamide hydrochloride] the IC50 was 0.235 µM.
CN1CCCC(NC(=O)c2cc3nc(-n4cc(-c5ccccc5)cn4)nc(N4CCOCC4)c3o2)C1 (stereo not shown) [Compound 169, N-(1-methyl-3-piperidyl)-4-morpholino-2-(4-phenylpyrazol-1-yl)furo[3,2-d]pyrimidine-6-carboxamide] showed an IC50 of 0.0673 µM.
